Assay results from patent US20140309300A1, “Bicyclic Labdane Diterpenes for Use in the Treatment of TRPC6 Associated Diseases” (UNIVERSITAET LEIPZIG, priority 2011, published 2014).

Legend:
human TRPM3 = biological target: T1, human TRPM3 (Homo sapiens, UniProt Q9HCF6); experiment: Specificity test, calcium influx in hTRPM3 HEK293 cells; format: cell-based; conditions: FIG. 1
T1 construct: expressed in transfected cells; host or cells: HEK293 (line hTRPM3)
Experimental: (§1) HEK293 (ATCC CRL-1573) cells were grown in Earle's Minimum Essential Medium (MEM) supplemented with 10 Vol.-% fetal calf serum, 2 mM (mmol/l) L-glutamine, 100 units/ml penicillin and 0.1 mg/ml streptomycin. Cells were seeded in 35-mm culture dishes, grown for 24 h, and transfected at 80% confluence with 2 μg of plasmid DNA encoding a C-terminally YFP-tagged human TRPC6 and 4 μl of Fugene HD reagent (Roche) in 100 μl serum-free medium. To select stably transfected HEKhTRPC6-YFP clones, 1 mg/ml geneticin (G418) was added to the medium. […] To verify functional expression, different clones were isolated and tested by single-cell [Ca^2+]i imaging experiments. […]
(§2) To assess the effect of bicyclic labdane diterpenes on calcium transport via TRP channels, larixol and larixol acetate was added to cell lines from example 1. Blocking of the respective TRP channel was determined by determining increases in [Ca^2+]i in suspensions. To activate the TRP channels, an activator of the respective channel was added, and changes in fluorescence intensity of intracellularly loaded fluo-4 was determined with a multiwell plate reader device (Polarstar Omega, BMG Labtech). For HEKrTRPV1 cells, assessment of activation was performed by monitoring the intracellular acidification, which results in fluorescence loss of co-expressed YFP. […]

TRPC6 [1] = biological target: T2, TRPC6 (Homo sapiens, UniProt Q9Y210); experiment: Calcium influx (fluo-4 [Ca2+]i) in TRPC6-expressing HEK293 cells; format: cell-based; conditions: 0.01 to 20 μM; activated with 50 μM OAG or GPCR agonist mix; FIG. 1
T2 construct: expressed in transfected cells
T2 sequence (Q9Y210 1-931): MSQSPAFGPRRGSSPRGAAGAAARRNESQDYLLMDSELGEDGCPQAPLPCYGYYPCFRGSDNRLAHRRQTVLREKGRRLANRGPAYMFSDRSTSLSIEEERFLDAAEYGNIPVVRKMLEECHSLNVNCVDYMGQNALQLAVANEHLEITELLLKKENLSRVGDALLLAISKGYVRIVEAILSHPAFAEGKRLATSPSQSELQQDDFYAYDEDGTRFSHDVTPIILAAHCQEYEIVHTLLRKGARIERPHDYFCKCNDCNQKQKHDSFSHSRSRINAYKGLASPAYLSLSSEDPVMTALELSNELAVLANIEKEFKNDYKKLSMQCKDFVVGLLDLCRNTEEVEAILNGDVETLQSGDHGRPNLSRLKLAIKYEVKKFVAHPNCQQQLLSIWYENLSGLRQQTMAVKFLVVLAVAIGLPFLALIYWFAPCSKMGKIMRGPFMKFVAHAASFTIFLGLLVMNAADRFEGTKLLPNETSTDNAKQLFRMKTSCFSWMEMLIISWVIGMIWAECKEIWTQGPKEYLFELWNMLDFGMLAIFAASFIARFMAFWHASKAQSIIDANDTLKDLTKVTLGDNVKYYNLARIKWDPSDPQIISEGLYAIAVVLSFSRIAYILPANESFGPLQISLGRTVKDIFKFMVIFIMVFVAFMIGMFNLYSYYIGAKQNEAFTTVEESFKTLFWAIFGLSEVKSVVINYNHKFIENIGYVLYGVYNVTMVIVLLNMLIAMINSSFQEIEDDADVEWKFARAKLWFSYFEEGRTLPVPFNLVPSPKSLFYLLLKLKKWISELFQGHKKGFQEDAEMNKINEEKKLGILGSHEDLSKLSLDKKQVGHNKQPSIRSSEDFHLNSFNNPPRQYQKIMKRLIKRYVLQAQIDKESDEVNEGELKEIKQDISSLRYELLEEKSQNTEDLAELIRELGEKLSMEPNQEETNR
Experimental: as §1, §2

rat TRPV1 = biological target: T3, rat TRPV1 (Rattus norvegicus, UniProt O35433); experiment: Specificity test in HEKrTRPV1 cells (intracellular acidification, YFP fluorescence loss); format: cell-based; conditions: activator 2 μM capsaicin; FIG. 1
T3 construct: expressed in transfected cells; host or cells: HEK293 (line rTRPV1)
T3 sequence (O35433 whole entry): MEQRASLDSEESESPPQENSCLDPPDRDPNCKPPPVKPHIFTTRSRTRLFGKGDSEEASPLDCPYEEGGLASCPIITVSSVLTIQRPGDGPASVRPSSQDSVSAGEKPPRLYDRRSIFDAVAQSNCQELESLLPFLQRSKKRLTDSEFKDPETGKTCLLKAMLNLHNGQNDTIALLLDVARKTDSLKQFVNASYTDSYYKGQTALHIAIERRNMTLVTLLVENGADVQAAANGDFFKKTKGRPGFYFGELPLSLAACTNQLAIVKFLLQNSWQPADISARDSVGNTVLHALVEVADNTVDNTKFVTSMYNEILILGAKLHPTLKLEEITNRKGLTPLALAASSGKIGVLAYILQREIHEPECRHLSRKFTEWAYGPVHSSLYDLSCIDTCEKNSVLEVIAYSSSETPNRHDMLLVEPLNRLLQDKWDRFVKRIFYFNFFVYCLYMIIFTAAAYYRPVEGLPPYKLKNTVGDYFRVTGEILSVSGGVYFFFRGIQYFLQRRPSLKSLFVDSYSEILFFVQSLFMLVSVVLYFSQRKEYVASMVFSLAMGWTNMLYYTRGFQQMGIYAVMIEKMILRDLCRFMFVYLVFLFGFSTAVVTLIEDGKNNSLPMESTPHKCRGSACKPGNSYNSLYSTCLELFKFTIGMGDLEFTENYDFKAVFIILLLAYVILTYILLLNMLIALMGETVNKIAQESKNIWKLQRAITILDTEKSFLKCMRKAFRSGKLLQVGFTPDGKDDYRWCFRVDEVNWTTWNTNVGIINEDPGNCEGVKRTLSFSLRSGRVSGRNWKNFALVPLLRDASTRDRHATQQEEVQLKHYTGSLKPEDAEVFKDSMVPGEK
Experimental: as §1, §2

other TRP channels = experiment: Specificity tests in cell lines overexpressing other TRP channels; format: cell-based; conditions: FIG. 1
Experimental: as §1, §2

human TRPM8 = biological target: T4, human TRPM8 (Homo sapiens, UniProt Q7Z2W7); experiment: Specificity test, calcium influx in hTRPM8 HEK293 cells; format: cell-based; conditions: FIG. 1
T4 construct: expressed in transfected cells; host or cells: HEK293 (line hTRPM8)
Experimental: as §1, §2

human TRPM2 = biological target: T5, human TRPM2 (Homo sapiens, UniProt O94759); experiment: Specificity test, calcium influx in hTRPM2 HEK293 cells; format: cell-based; conditions: activator 1 mM H2O2; FIG. 1
T5 construct: expressed in transfected cells; host or cells: HEK293 (line hTRPM2)
T5 sequence (O94759 whole entry): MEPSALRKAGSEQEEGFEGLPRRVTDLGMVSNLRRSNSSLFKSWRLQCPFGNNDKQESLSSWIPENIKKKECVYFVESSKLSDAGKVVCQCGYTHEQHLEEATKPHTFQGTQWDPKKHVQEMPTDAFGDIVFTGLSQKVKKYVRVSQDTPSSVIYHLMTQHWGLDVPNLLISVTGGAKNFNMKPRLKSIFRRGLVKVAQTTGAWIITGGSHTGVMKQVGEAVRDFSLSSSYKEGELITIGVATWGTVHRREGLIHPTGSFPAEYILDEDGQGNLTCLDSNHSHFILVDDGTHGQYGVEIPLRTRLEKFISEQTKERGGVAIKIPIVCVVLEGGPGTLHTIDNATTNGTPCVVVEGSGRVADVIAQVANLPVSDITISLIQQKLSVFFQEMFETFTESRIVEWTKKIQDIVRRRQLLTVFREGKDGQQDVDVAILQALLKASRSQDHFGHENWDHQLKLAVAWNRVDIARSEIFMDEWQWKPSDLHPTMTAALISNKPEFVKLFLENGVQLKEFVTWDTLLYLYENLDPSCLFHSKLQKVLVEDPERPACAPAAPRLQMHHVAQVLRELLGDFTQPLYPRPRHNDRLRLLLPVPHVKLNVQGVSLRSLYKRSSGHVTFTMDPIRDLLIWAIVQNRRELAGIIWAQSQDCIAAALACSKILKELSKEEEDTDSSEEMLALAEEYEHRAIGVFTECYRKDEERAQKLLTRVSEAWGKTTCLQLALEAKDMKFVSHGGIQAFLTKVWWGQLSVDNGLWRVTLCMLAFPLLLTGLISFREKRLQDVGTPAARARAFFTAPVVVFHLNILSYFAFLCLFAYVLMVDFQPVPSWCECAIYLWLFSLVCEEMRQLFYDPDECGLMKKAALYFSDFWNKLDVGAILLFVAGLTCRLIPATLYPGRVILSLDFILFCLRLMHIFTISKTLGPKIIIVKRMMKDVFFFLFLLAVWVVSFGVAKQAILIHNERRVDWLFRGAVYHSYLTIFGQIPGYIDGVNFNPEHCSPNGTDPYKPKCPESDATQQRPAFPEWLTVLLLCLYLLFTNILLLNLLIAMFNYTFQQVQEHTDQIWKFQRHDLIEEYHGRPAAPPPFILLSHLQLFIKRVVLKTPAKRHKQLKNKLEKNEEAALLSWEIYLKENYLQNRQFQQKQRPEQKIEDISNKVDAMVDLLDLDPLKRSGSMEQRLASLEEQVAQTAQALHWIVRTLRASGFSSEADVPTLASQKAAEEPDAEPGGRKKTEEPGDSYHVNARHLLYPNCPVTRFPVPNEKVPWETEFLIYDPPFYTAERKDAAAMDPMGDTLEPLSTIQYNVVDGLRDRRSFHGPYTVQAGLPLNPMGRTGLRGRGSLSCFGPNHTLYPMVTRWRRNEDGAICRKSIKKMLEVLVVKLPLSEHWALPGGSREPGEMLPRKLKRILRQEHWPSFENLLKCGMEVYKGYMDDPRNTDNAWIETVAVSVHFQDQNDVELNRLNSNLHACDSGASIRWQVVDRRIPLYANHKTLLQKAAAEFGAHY
Experimental: as §1, §2

[2] = system: hypoxia-induced pulmonary vasoconstriction (HPV); experiment: Hypoxia-induced pulmonary vasoconstriction (HPV) in isolated perfused mouse lungs; format: in vivo; conditions: 5 μM in perfusion solution; isolated perfused C57BL/6 mouse lungs; 1% O2
Experimental: FIG. 4 Inhibition of hypoxia-induced pulmonary vasoconstriction (HPV) by larixol acetate.
To assess whether the TRPC6 blocking action of larixol acetate is potent to prevent HPV, larixol acetate was supplied in an induced mouse model of HPV.
Anesthetized, male adult C57BL/6 mice were subjected to tracheostomy, followed by volume-controlled normoxic ventilation. Midsternal thoracotomy was performed, and two cannulas (1 mm inner diameter) were inserted into the pulmonary artery and left atrium, respectively. Lungs were then perfused at a constant flow at 37° C. with a Hanks' Balanced Salt Solution (Sigma-Aldrich) containing 5% bovine serum albumin (Sigma-Aldrich) and 5% dextran (Sigma-Aldrich) at pH of 7.4. Indomethacin (30 μM) and N^G-nitro-L-arginine methylester (1 mM) were added to the perfusate to inhibit endogenous prostaglandin and nitric oxide synthesis.

TRPC6 [3] = biological target: T2, TRPC6; experiment: Electrophysiological whole-cell recordings of TRPC6-mediated current; format: cell-based
Experimental: FIG. 2 Larixol acetate acts from the outside of the cells. A: Electrophysiological whole-cell recordings were performed to determine the TRPC6-mediated current upon direct stimulation with 50 μM OAG or by activating heterotrimeric G-proteins with intracellularly applied AlF4 (50 μM), to trigger phospholipase C activation, resulting in the formation of endogenous diacylglycerols. To expose the cytosolic side of the channel protein to larixol acetate, larixol acetate was added to the intracellular solution (hatched bars and filled bars). Control solutions without larixol acetate (open bars) were measured in parallel.
TRPC6-expressing cells were seeded on glass coverslips, mounted onto the stage of an inverted microscope, and contacted with a borosilicate glass pipet filled with an intracellular solution. After reaching a gigaohm seal, the whole-cell configuration was obtained by gently applying a negative pressure at the pipet. Whole-cell currents were measured in the voltage clamped mode with a holding potential of −60 mV, and normalized for the cell size by dividing current amplitudes by the cellular capacitance (pA/pF). TRPC6 was activated either by adding OAG to the bath solution or by including 50 μM AlF4^− in the pipet solution.
In some experiments, the pipet solution was additionally supplemented with 1 μM larixol acetate to apply the modulator intracellularly (FIG. 2A, “inside”).

lung edema formation = experiment: Ischemia-reperfusion-associated lung edema formation, rabbit lung transplantation model; format: in vivo; conditions: 5 μM in Perfadex and Tyrode solutions, explanted rabbit lungs
Experimental: FIG. 5 Inhibition of ischemia-reperfusion-associated lung edema formation by larixol acetate. Rabbit lungs were explanted and extracorporally perfused with Perfadex solution and ventilated under oxygenized conditions (open symbols) or under hypoxic conditions (filled symbols). Lungs were then placed on ice for 2 h, and reperfused for 90 min with tyrode solution. Upper panel: control experiments without larixol acetate, lower panel: similar experiments, but with Perfadex® and tyrode solutions that were supplemented with 5 μM larixol acetate. Increases in the lung wet weight indicate edema formation. Data represent means and S.E.M. (Standard error of the mean) of 6 individual experiments for each treatment group.
To assess whether larixol acetate mediated TRPC6 block can prevent endothelial dysfunction, the effect of larixol acetate was tested on lung edema formation in a rabbit lung transplantation model.
New Zealand white rabbits were anesthetized and subjected to tracheostomy. Animals were mechanically ventilated with room air (40 breaths min^−1) The thorax was opened by midline sternotomy, pulmonary arteries and the left atrium were cannulated, the heart-lung-block was excised and transferred to a thermostatted artificial thorax chamber. […] The wet weight of the lungs was recorded during the whole procedure. […]

HEK293 cells = experiment: Propidium iodide exclusion cytotoxicity assay; format: cell-based, human; conditions: concentrations up to 10 μM, 24 h incubation
Experimental: FIG. 3 Larixol and larixol acetate to not show a cytotoxic effect on HEK293 cells. The cellular integrity was determined by exclusion of the DNA-binding fluorescent dye propidium iodide (PI).
To assess possible cytotoxic effects of the larixol and larixol acetate, a propidium iodide exclusion assay was performed. Cells were grown in 24 well plates for 18 h and then incubated with the indicated compounds for another 24 h (FIG. 3). Propidium iodide (2 μg/ml, Invitrogen) was added, and the fluorescence (excitation at 544 nm and detection at 620 nm) was followed. To obtain a maximum reference value, 0.2% Triton X-100 was added to some samples prior to propidium iodide injection. The following controls were tested: • negative controls: HBS buffer (“control”), or 0.1% DMSO in HBS buffer, added to the growth medium in the same volume as for 10 μM larixol (“0.1% DMSO”). • positive controls: 2 μm staurosporine, 50 μm digitonin

T1 sequence (Q9HCF6 whole entry): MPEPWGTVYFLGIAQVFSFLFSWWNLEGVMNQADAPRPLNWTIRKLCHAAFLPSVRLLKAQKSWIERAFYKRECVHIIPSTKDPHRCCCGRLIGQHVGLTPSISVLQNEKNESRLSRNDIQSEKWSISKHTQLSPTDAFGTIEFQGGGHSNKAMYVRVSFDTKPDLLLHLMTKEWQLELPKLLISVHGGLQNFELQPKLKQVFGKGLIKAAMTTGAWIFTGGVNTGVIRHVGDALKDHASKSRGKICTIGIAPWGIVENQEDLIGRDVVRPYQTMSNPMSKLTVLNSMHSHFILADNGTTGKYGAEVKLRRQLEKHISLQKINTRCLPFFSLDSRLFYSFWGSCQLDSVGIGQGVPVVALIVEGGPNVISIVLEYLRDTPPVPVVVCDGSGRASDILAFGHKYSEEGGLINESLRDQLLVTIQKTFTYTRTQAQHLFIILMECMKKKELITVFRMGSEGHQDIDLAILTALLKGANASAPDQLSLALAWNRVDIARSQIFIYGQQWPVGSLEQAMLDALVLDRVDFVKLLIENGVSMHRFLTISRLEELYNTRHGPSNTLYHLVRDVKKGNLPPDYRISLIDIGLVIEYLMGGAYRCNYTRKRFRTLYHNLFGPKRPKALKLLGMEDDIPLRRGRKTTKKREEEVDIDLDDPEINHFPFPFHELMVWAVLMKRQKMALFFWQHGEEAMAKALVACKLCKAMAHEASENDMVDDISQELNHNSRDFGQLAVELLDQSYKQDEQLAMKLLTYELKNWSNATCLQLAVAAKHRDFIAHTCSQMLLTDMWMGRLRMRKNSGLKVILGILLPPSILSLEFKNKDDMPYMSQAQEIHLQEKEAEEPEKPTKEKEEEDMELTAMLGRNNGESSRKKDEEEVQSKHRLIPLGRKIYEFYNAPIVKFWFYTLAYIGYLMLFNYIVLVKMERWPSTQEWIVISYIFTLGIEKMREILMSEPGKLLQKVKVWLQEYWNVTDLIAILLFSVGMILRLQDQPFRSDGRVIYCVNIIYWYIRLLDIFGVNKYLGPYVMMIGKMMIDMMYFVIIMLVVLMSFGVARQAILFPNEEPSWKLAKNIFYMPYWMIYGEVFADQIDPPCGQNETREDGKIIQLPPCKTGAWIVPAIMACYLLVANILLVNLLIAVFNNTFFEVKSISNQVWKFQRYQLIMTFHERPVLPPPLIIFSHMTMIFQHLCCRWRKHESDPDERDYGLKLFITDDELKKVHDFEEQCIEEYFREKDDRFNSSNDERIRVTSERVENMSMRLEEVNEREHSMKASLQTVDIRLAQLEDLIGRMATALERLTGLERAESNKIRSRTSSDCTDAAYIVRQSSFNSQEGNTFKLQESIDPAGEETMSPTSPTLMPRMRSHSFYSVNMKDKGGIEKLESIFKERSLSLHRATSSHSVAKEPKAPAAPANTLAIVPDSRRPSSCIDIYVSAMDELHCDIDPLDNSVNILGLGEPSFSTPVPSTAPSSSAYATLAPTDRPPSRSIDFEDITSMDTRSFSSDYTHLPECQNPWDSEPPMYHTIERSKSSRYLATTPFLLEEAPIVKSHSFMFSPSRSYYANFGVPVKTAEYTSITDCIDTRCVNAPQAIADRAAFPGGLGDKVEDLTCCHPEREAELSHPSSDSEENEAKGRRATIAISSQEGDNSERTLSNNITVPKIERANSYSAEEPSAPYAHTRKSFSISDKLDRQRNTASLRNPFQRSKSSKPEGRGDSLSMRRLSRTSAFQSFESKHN

C=C[C@@](C)(O)CC[C@H]1C(=C)C[C@H](O)[C@H]2C(C)(C)CCC[C@]12C [larixol]
effect on TRPM3 (human TRPM3): not affected | inhibition of calcium influx via TRPC6 (TRPC6 [1]): selectively inhibit calcium influx via TRPC6 | effect on TRPV1 (rat TRPV1): not affected | inhibition of other TRP channels (other TRP channels): not, or only poorly, inhibited | effect on TRPM8 (human TRPM8): not affected | effect on TRPM2 (human TRPM2): not affected

larixol acetate
hypoxia-induced increase in pulmonary artery pressure (PAP) [2]: completely abrogated | suppression of OAG- or AlF4-induced TRPC6 activation, intracellular exposure (inside, pipet solution) (TRPC6 [3]; 1 μM in pipet solution): not sufficient to suppress | block of TRPC6 whole-cell current, blocker applied via the bath solution (outside) (TRPC6 [3]; 1 μM, OAG or AlF4- activation, holding potential -60 mV): efficient block | effect on TRPM3 (human TRPM3): not affected | inhibition of calcium influx via TRPC6 (TRPC6 [1]): selectively inhibit calcium influx via TRPC6 | effect on TRPV1 (rat TRPV1): not affected | increase in lung wet weight (edema formation) under hypoxic treatment (lung edema formation): prevented the increase in lung wet weight | inhibition of other TRP channels (other TRP channels): not, or only poorly, inhibited | effect on TRPM8 (human TRPM8): not affected | cytotoxic effect (propidium iodide exclusion) (HEK293 cells): no cytotoxic effect | effect on TRPM2 (human TRPM2): not affected
